Laboratory results reported in PMC5440000 (Clinical Interventions in Aging, 2017).
pIC50: −log10 of the molar value.

Target: Aβ42 (Homo sapiens, UniProt P05067)
Assay: Thioflavin T aggregation assay, […] h at […]°C
Assay type: biochemical

Aβ42, sequence (P05067 672-713): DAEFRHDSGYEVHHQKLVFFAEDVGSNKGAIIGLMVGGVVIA

Row | Compound | pIC50
1 | CC1=C(/C=C/C(C)=C/C=C/C(C)=C/C=C/C=C(C)/C=C/C=C(C)/C=C/C(=O)[C@]2(C)C[C@@H](O)CC2(C)C)C(C)(C)CCC1 [cryptocapsin] | 5.71
2 | CC1=C(/C=C/C(C)=C/C=C/C(C)=C/C=C/C=C(C)/C=C/C=C(C)/C=C/C2=C(C)C[C@@H](O)CC2(C)C)C(C)(C)C[C@H](O)C1 [zeaxanthin] | 5.64
